The target of assay [1] is T1, full length MALT1 enzyme (Homo sapiens, UniProt Q9UDY8).
T1 construct: a fluorescence based assay with full length MALT1 enzyme
T1 sequence (Q9UDY8 1-824): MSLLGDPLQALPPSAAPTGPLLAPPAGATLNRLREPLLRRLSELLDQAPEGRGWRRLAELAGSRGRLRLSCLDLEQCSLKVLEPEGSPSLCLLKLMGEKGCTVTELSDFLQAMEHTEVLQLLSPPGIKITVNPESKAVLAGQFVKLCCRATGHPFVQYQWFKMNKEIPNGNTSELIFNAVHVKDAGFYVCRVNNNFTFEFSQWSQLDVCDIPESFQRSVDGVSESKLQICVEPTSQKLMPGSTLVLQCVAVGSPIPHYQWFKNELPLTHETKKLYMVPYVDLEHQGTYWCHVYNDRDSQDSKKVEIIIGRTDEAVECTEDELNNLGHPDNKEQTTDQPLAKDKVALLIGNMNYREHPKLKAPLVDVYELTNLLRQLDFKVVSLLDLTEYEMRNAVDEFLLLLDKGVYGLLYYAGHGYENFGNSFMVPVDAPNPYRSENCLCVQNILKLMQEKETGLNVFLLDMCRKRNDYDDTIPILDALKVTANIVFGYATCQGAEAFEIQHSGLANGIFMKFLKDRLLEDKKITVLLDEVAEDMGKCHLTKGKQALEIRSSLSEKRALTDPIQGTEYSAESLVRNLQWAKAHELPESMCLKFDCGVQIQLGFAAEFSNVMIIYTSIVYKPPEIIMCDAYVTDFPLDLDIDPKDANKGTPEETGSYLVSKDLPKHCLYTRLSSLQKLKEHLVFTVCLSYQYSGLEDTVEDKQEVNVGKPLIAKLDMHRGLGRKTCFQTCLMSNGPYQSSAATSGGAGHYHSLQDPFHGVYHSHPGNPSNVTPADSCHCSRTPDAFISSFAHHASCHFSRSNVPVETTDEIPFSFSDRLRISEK
Nature of the assay: MALT1 biochemical assay (fluorescence based, Ac-Leu-Arg-Ser-Arg-AMC cleavage). To be noted: full length MALT1 protein, 2 h pre-incubation at RT, tetrapeptide substrate Ac-Leu-Arg-Ser-Arg-AMC, read-out: Malt 1 inhibition IC50. The method, then: The biochemical potency of the MALT1 inhibitors was tested by using a fluorescence based assay with full length MALT1 enzyme. The assay principle makes use of the preferential cleavage by MALT1 after the Arginine residue. Thus, the substrate used is a tetrapeptide (Ac-Leu-Arg-Ser-Arg-AMC; Catalogue # SMAMC013, SM Biochemicals) which is cleaved by active MALT1 releasing the AMC which is fluorescent. Upon addition of the MALT1 protease inhibitors, the proteolytic activity (and accordingly AMC fluorescence) is reduced in a dose dependent manner. The kinetic characterization of the enzymatic reaction was measured by determining the Michaelis constant, Km, of the reaction (approximately 130=A/I). The assay buffer consisted of 50 mM MES, 150 mM NaCl, 0.1% w/v CHAPS, 1 M Ammonium citrate and 10 mM DTT (pH=7). The assay was established for the 384-well plate format using black microtiter square well plates (Optiplate 384-F, Perkin Elmer). The test compounds were dissolved in 100% DMSO at a stock concentration of 10 mM. Serial dilutions were made first in 100% DMSO. The final concentration of DMSO was 0.5% by wt.
For determining the extent of inhibition of MALT1 protease activity by MALT1 inhibitors, 10⇒| of the test compound solutions were pre-incubated with 10⇒| of MALT1 full length protein (100-300 ng protein/well) for 2 h at RT. This was followed by 10⇒| of substrate addition at a final concentration of 100⇒M for an additional 4-12 h. The increase in assay signal was linear over this period of time and proportional with increase in the enzyme content. The final concentrations of the test compounds typically ranged from 10000 nM to 0.03 nM in an alternate 3.16 and 3 serial dilutions. The positive control for the reaction contained enzyme and DMSO (without any test compound) and was considered to have 100% enzyme activity (0% inhibition) and the negative control containing only buffer and DMSO (without any enzyme) was considered to have no enzymatic activity (100% inhibition). The fluorescence was recorded in a Spectra Max plate reader, Molecular Devices, with a fluorescence excitation at 360 nm and emission recording at 460 nm. The fluorescence units were transformed to percentage inhibitions by using the positive and negative controls as references as per the following formula.
[formula] Positive control=Reaction containing enzyme+substrate+DMSO
Negative control=Reaction containing substrate+DMSO but no enzyme
The IC50 values of individual compounds were calculated with Non Linear Regression Analysis using Graph Pad Prism (Graph Pad software, Inc, USA).

Assay [2] concerns NF-kB transcriptional activity in HEK-293-NF-kB-Luc cell line overexpressing MALT1. The assay can be described thus: NF-kB reporter assay (luciferase, MALT1 stably overexpressed). To be noted: Homo sapiens, 24 h, HEK-293-NF-kB-Luc cells stably overexpressing MALT1, 24 h treatment, Bright Glo luminescence; read-out: NF-kB inhibition IC50. In kind it is cell-based. The gist of the method: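 HEK-293-NF-κB-Luc cells stably overexpressing MALT1 were seeded overnight, then exposed to test compounds for 24 h. Bright Glo added 10 min at ambient temperature and luminescence read; % inhibition calculated against 0.1% DMSO controls.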
On the technique in general: Reporter assays use an easily measured gene product as a stand-in for the process of interest.

Structures are written as SMILES.

Experimental findings from patent publication US20190275012A9, “SUBSTITUTED THIAZOLO-PYRIDINE COMPOUNDS AS MALT1 INHIBITORS” (Lupin Limited, priority 2016, published 2019) are described below.

Regarding `COC(C)c1c(NC(=O)Nc2ccc(-c3cnco3)c(Cl)c2)cnc2sc(C)nc12` (single isomer, unassigned) [Compound 204, (S) or (R)-1-(3-Chloro-4-(oxazol-5-yl)phenyl)-3-(7-(1-methoxyethyl)-2-methylthiazolo[5,4-b]pyridin-6-yl)urea], the IC50 in assay [1] and in assay [2] was 101 to 500 nM each time.

Regarding `CCc1c(NC(=O)Nc2ccc(OC)c(Cl)c2)cnc2sc(C)nc12` [Compound 25, 1-(3-Chloro-4-methoxyphenyl)-3-(7-ethyl-2-methylthiazolo[5,4-b]pyridin-6-yl)urea], the IC50 is 1 to 50 nM in assay [1] and 501 to 1500 nM in assay [2].

For the compound `COC(C)c1c(NC(=O)Nc2cnc(-n3cccn3)c(C(F)(F)F)c2)cnc2sc(C)nc12` (single isomer, unassigned) [Compound 213b, (S) or (R)-1-(6-(1H-Pyrazol-1-yl)-5-(trifluoromethyl)pyridin-3-yl)-3-(7-(1-methoxyethyl)-2-methylthiazolo[5,4-b]pyridin-6-yl)urea], the IC50 in assay [1] was 1 to 50 nM; in assay [2] it was 1 to 100 nM.

`COC1CCN(c2c(NC(=O)Nc3cnc(-n4nccn4)c(Cl)c3)cnc3sc(C)nc23)CC1` [Compound 29, 1-(5-Chloro-6-(2H-1,2,3-triazol-2-yl)pyridin-3-yl)-3-(7-(4-methoxypiperidin-1-yl)-2-methylthiazolo[5,4-b]pyridin-6-yl)urea]: the IC50 is 51 to 100 nM in assay [1] and 101 to 500 nM in assay [2].

For `COc1nc(-n2nccn2)c(Cl)cc1NC(=O)Nc1cnc2sc(C)nc2c1C(C)OC` (single isomer, unassigned) [Compound 90a, 1-(5-Chloro-2-methoxy-6-(2H-1,2,3-triazol-2-yl)pyridin-3-yl)-3-(7-(1-methoxyethyl)-2-methylthiazolo[5,4-b]pyridin-6-yl)urea], the IC50 in assay [1] lay in the range of 1 to 50 nM; in assay [2] it was 1 to 100 nM.

Turning to `Cc1nc2c(C3CC3)c(NC(=O)Nc3ccc(-n4ccnn4)c(Cl)c3)cnc2s1` [Compound 169, 1-(3-Chloro-4-(1H-1,2,3-triazol-1-yl)phenyl)-3-(7-cyclopropyl-2-methylthiazolo[5,4-b]pyridin-6-yl)urea], the IC50 in assay [1] was 1 to 50 nM; in assay [2], 101 to 500 nM.

Take `Cc1ncn(-c2ccc(NC(=O)Nc3cnc4sc(C)nc4c3C3CC3)cc2C#N)n1` [Compound 171, 1-(3-Cyano-4-(3-methyl-1H-1,2,4-triazol-1-yl)phenyl)-3-(7-eyelopropyl-2-methylthiazolo[5,4-b]pyridin-6-yl)urea]: the figures for the IC50 in assay [1] and in assay [2] were 51 to 100 nM and 101 to 500 nM, respectively.

In the case of `COC(C)c1c(NC(=O)Nc2ccc(-n3ccnn3)c(Cl)c2)cnc2sc(C)nc12` (single isomer, unassigned) [Compound 198b, (S) or (R)-1-(3-Chloro-4-(1H-1,2,3-triazol-1-yl)phenyl)-3-(7-(1-methoxyethyl)-2-methylthiazolo[5,4-b]pyridin-6-yl)urea], the figures for the IC50 in assay [1] and in assay [2] were 1 to 50 nM and 1 to 100 nM, respectively.

Take `Cc1nc2c(C(C)O)c(NC(=O)Nc3cnc(-n4nccn4)c(C(F)(F)F)c3)cnc2s1` (single isomer, unassigned) [Compound 71b, 1-(6-(2H-1,2,3-Triazol-2-yl)-5-(trifluoromethyl)pyridin-3-yl)-3-(7-(1-hydroxyethyl)-2-methylthiazolo[5,4-b]pyridin-6-yl)urea]: the IC50 in assay [1] was in the range of 1 to 50 nM; in assay [2] it was 1 to 100 nM.

For `Cc1nc2c(C3CC3)c(NC(=O)Nc3ccc(-n4ncnc4C)c(C#N)c3)cnc2s1` [Compound 172, 1-(3-Cyano-4-(5-methyl-1H-1,2,4-triazol-1-yl)phenyl)-3-(7-eyelopropyl-2-methylthiazolo[5,4-b]pyridin-6-yl)urea], the IC50 in assay [1] was in the range of 51 to 100 nM; in assay [2], 501 to 1500 nM.

In the case of `COC(CC1CC1)c1c(NC(=O)Nc2cnc(-n3nccn3)c(C(F)(F)F)c2)cnc2sc(C)nc12` (single isomer, unassigned) [Compound 240b, 1-(6-(2H-1,2,3-Triazol-2-yl)-5-(trifluoromethyl)pyridin-3-yl)-3-(7-(2-cyclopropyl-1-methoxyethyl)-2-methylthiazolo[5,4-b]pyridin-6-yl)urea], the IC50 was in the range of 1 to 50 nM in assay [1] and 1 to 100 nM in assay [2].

Take `CCc1nc2c(C(C)OC)c(NC(=O)Nc3ccc(-n4nccn4)c(Cl)c3)cnc2s1` (single isomer, unassigned) [Compound 233b, 1-(3-Chloro-4-(2H-1,2,3-triazol-2-yl)phenyl)-3-(2-ethyl-7-(1-methoxyethyl)thiazolo[5,4-b]pyridin-6-yl)urea]: the IC50 fell in the range of 1 to 50 nM in assay [1] and 101 to 500 nM in assay [2].

`COC(C)(C)c1c(NC(=O)Nc2ccc(-n3nccn3)c(Cl)c2)cnc2sc(C)nc12` [Compound 98, 1-(3-Chloro-4-(2H-1,2,3-triazol-2-yl)phenyl)-3-(7-(2-methoxypropan-2-yl)-2-methylthiazolo[5,4-b]pyridin-6-yl)urea]: the IC50 in assay [1] lay within 1 to 50 nM; in assay [2], 1 to 100 nM.

Take `Cc1nc2c(C3CC3)c(NC(=O)Nc3cncc(C(F)(F)F)c3)cnc2s1` [Compound 7, 1-(7-Cyclopropyl-2-methylthiazolo[5,4-b]pyridin-6-yl)-3-(5-(trifluoromethyl)pyridin-3-yl)urea]: the IC50 in assay [1] and in assay [2] was 101 to 500 nM throughout.

Consider `Cc1nc2c(C3CC3)c(NC(=O)Nc3cnc(OCCC4CCN(C)CC4)c(Cl)c3)cnc2s1` [Compound 73, 1-(5-Chloro-6-(2-(1-methylpiperidin-4-yl)ethoxy)pyridin-3-yl)-3-(7-cyclopropyl-2-methylthiazolo[5,4-b]pyridin-6-yl)urea], for which the IC50 in assay [1] was in the range of 51 to 100 nM; in assay [2], 101 to 500 nM.

Regarding `COc1nc(-n2nccn2)c(C(F)(F)F)cc1NC(=O)Nc1cnc2sc(C)nc2c1C(OC)C1CC1` (single isomer, unassigned) [Compound 155a, 1-(7-(Cyclopropyl(methoxy)methyl)-2-methylthiazolo[5,4-b]pyridin-6-yl)-3-(2-methoxy-6-(2H-1,2,3-triazol-2-yl)-5-(trifluoromethyl)pyridin-3-yl)urea], the results for the half-maximal inhibitory concentration (IC50) in assay [1] and in assay [2] were 1 to 50 nM and 1 to 100 nM, respectively.

Regarding `COCC1CCCN(c2c(NC(=O)Nc3cnc(-n4nccn4)c(Cl)c3)cnc3sc(C)nc23)C1` (racemic) [Compound 50, (ě)-1-(5-Chloro-6-(2H-1,2,3-triazol-2-yl)pyridin-3-yl)-3-(7-(3-(methoxymethyl)piperidin-1-yl)-2-methylthiazolo[5,4-b]pyridin-6-yl)urea], the IC50 in assay [1] fell in the range of 1 to 50 nM; in assay [2] it was 101 to 500 nM.

By IC50 is commonly meant the point on the concentration scale where inhibition reaches its midpoint.
